Data on three molecules can be found in PubChem BioAssay (NCI).

Experiment in all cases: NCI-60 cell line screen, 48 h
Test [1] relates to 786-0 renal.
Test [2] relates to CAKI-1 renal.
Test [3] relates to M14 melanoma.
Test [4] has as its system MALME-3M melanoma.
Test [5] has as its system NCI/ADR-RES ovarian.
For test [6], the system named is SK-MEL-2 melanoma.
The test system of test [7] is SK-MEL-5 melanoma.
The subject of test [8] is SK-OV-3 ovarian.
Test [9] concerns SN12C renal.
The subject of test [10] is T-47D breast.

Where “and” joins values, the source holds several entries; their conditions need not be identical. Equal values may be shown once.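 Dose response: 5 concentrations. Exposure: 48 h. Format: 96-well plates. Endpoint: linear interpolation; highest concentration if not reached. GI50 = concentration required for 50% inhibition of growth. At the TGI there is no net growth.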

With `O=C(O)c1ccc(C(=O)O)c2c(C(=O)O)ccc(C(=O)O)c12`, the TGI in test [1], in [2], in [3], in test [4], in [5] and in test [6] was > 100 µM throughout. Moreover, the TGI in test [7], in test [8], in [9] and in test [10] was > 100 µM throughout.
`Clc1nc(Cl)nc(Nc2cccc3ccccc23)n1`: the GI50 in test [1] was > 100 µM; in [2], > 100 µM; in test [3], > 100 µM; in test [4] it was 76.9 µM; in [5] it was > 100 µM; in test [6], 80.7 µM. For the same molecule, the GI50 in [7] is 67.3 µM; in test [8], > 100 µM; in [9], > 100 µM; in [10] it was 98.5 µM. In addition, the TGI in test [1], in [2], in [3], in test [4], in [5] and in [6] was > 100 µM in each case. The TGI in test [7], in [8], in [9] and in test [10] was > 100 µM in each case.
With `CSc1nc(NC2OC(COC(C)=O)C(OC(C)=O)C(OC(C)=O)C2OC(C)=O)c(N=CC=Nc2c(NC3OC(COC(C)=O)C(OC(C)=O)C(OC(C)=O)C3OC(C)=O)nc(SC)n(C)c2=O)c(=O)n1C` (stereo not given), the GI50 is 16.7 µM in test [1]; > 50 µM in test [2]; > 50 µM in test [3]; > 50 µM in test [4]; > 50 µM in [5]; 25.2 µM in test [6]. Also, the GI50 was > 50 µM in test [7], > 50 µM in test [8], > 50 µM in test [9] and 43.2 µM in test [10]. Further, the TGI in [1] was 50 µM and > 80.6 µM; in [2], > 100 µM; in [3] it was > 50 µM; in test [4] it was > 100 µM; in test [5] it was > 100 µM; in [6], 50 µM and > 96 µM. For the same molecule, the TGI in [7] is > 100 µM; in test [8], > 50 µM and 80.1 µM; in test [9] it was > 100 µM; in test [10], 50 µM and > 100 µM.
